Assay results: patent publication US8497385B2, “Bryostatin analogues, synthetic methods and uses” (The Board of Trustees of the Leland Stanford Junior …, priority 2007, dated 2013)
Like-named read-outs stand apart in the source and are kept apart here.

How the values were obtained:
[1] = molecular target: rat brain PKC isozyme mixture; assay: Protein Kinase C (Isozyme Mix) Assay; assay type: binding; conditions: for Ki: rat brain PKC isozyme mixture, read-out: Binding Affinity
PKCδ-C1B = PKCδ-C1B (Homo sapiens (Human), UniProt Q05655); assay: PKCδ-C1B Assay; assay type: binding
P388 cell line = assay: P388 Murine Lymphocytic Leukemia Cell Assay; assay type: cell-based; conditions: 5 days incubation, MTT
Procedure: Cells from a P388 cell line (CellGate, Inc., Sunnyvale, Calif.) are grown in RPMI 1640 cell medium containing fetal calf serum (10%), L-glutamine, penicillin, streptomycin and are split twice weekly. All compounds are first diluted with DMSO. Later serial dilutions are done with a phosphate buffer solution (HYQ DPBS modified phosphate buffered saline). All dilutions are done in glass vials and the final DMSO concentration is always below 0.5% by volume. Final two-fold dilutions are done in a 96 well plate using cell media so that each well contains 50 μL. All compounds are assayed in quadruplicate over 12 concentrations. Cell concentration is measured using a hemacytometer and the final cell concentration is adjusted to 1×10^4 cells/mL with cell medium. The resulting solution of cells (50 μL) is then added to each well and the plates are incubated for 5 days in a 37° C., 5% CO2, humidified incubator (Sanyo CO2 incubator). MTT solution (3-[4,5-dimethylthiazol-2-yl]-2,5-diphenyltetrazolium bromide, 10 μL) is then added to each well and the plates are re-incubated under identical conditions for 2 h. To each well is then added acidified isopropanol (150 μL of i-PrOH solution containing 0.05 N HCl) and mixed thoroughly. The plates are then scanned at 595 nm and the absorbances are read (Wallac Victor 1420 Multilabel Counter). The resulting data is then analyzed to determine an ED50 value using the Prism software package (GraphPad).

Sequence of PKCδ-C1B (Q05655 whole entry, looked up): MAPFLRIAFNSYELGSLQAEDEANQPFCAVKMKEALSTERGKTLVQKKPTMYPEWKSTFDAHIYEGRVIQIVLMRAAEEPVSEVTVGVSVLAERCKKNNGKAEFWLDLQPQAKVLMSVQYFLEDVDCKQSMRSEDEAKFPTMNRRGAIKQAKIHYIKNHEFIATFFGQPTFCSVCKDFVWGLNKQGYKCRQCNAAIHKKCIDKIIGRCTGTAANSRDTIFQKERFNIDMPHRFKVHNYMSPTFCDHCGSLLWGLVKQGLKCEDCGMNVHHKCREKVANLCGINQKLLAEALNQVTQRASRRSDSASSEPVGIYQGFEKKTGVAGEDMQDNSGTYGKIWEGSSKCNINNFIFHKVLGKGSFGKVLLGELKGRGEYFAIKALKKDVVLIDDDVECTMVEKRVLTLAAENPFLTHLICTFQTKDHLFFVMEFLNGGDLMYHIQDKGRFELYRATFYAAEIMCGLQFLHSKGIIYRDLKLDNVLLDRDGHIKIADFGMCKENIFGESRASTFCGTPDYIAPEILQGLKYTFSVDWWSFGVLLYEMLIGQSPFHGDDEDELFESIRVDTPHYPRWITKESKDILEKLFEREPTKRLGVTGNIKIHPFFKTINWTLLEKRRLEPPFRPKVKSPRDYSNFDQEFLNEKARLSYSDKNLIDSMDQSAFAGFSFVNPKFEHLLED

| SMILES | Ki [1] | other results |
| --- | --- | --- |
| CCCCCCCC(=O)O[C@H]1/C(=C/C(=O)OC)C[C@H]2C[C@H](CO)OC(=O)C[C@H](O)CCO[C@H](c3ccc(-c4ccccc4)cc3)C[C@@H]3CCO[C@H](/C=C/C(C)(C)[C@]1(O)O2)O3 [Formula 19B.1] | 3.1 nM |  |
| CCCCCC/C=C/c1ccc([C@@H]2C[C@@H]3CCO[C@H](/C=C/C(C)(C)[C@]4(O)O[C@@H](C/C(=C\C(=O)OC)[C@@H]4OC(=O)CCCCCCC)C[C@H](CO)OC(=O)C[C@H](O)CCO2)O3)cc1 [Formula 19B.3] | 4.6 nM |  |
| COC(=O)/C=C1\C[C@H]2C[C@H]([C@@H](C)O)OC(=O)C[C@H](O)C[C@@H]3CCC[C@H](C[C@@H]4CCO[C@H](/C=C/C(C)(C)[C@](O)(O2)[C@H]1OC(C)=O)O4)O3 [Formula 702.2] |  | Ki (PKCδ-C1B): 232 ± 11 nM; P388 Assay ED50 (P388 cell line): 181 nM |
| CCCCCCCC(=O)O[C@H]1/C(=C/C(=O)OC)C[C@H]2C[C@H](CO)OC(=O)C[C@H](O)CCO[C@H](c3ccccc3)C[C@@H]3CCO[C@H](/C=C/C(C)(C)[C@]1(O)O2)O3 [Formula 19B.0] | 2.3 nM |  |
| CCCCCCCC(=O)O[C@H]1/C(=C/C(=O)OC)C[C@H]2C[C@H](CO)OC(=O)C[C@H](O)CCO[C@H](c3ccc(Br)cc3)C[C@@H]3CCO[C@H](/C=C/C(C)(C)[C@]1(O)O2)O3 [Formula 18C] | 1.6 nM |  |
| CCCCCCCC(=O)O[C@H]1/C(=C/C(=O)OC)C[C@H]2C[C@H](CO)OC(=O)C[C@H](O)CCO[C@H](c3ccc(CCCOCCOCC)cc3)C[C@@H]3CCO[C@H](/C=C/C(C)(C)[C@]1(O)O2)O3 [Formula 19B.2] | 3.8 nM |  |
| CCCCCCC(=O)OC1C(=CC(=O)OC)CC2CC(C(C)O)OC(=O)CC(O)CC3CCCC(CC4CCOC(C=CC(C)(C)C1(O)O2)O4)O3 (stereo not shown) [Formula 702.3] |  | Ki (PKCδ-C1B; competition with tritiated phorbol 12,13-dibutyrate): 35 nM; P388 Assay ED50 (P388 cell line): 38 nM |
| CCCC(=O)O[C@@H]1[C@@H](C)[C@@]2(O)[C@@H](C=C(CO)C[C@]3(O)C(=O)C(C)=C[C@@H]23)[C@@H]2C(C)(C)[C@]12OC(=O)CCC [Phorbol dibutyrate, phorbol 12,13-dibutyrate, reference compound] |  | Kd ([1]; under identical conditions to the PKC isozyme mix assay, read-out: Kd of [H^3]-PDBu): 1.55 nM |
